One compound from PMC12589732, “Chemical composition and biological effects of Lavandula angustifolia Mill., essential oils” (AMB Express, 2025) can be followed below.

This test has as its target T1, Tyrosinase.
T1 construct: gene PPO3
The test is described as follows: L-DOPA oxidation, […] nm. The test is classed as biochemical. The note with it: substrate L-DOPA 5 mM stock; 50 mM phosphate pH 6.5; 37 °C; 10 min preincubation.

Structures are written as SMILES.

Compound `O=c1c(O)c(-c2ccc(O)c(O)c2)oc2cc(O)cc(O)c12` [Quercetin] gave a Dermatoprotective of 242.99 ± 2.67 µg/mL.
